Test results reported in US6737383B1, “Herbicidal oxadiazolidines” (priority 1999, dated 2004).

How the values were obtained:
[1] = system: purple nutsedge; assay: Test B pre/postemergence purple nutsedge; type: in vivo, Cyperus rotundus
Outline: (§1)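 Response is a visual 0-to-10 score relative to untreated plants, where 0 means no effect and 10 means complete control, taken twelve to sixteen days after application. Treatments went onto soil at planting and onto foliage of 1- to 4-leaf plants, using a surfactant-containing non-phytotoxic solvent.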

[2] = system: duck salad; assay: Test B flood test duck salad; type: in vivo, Heteranthera limosa
Outline: (§2)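 Plants were grown to the 2-leaf stage before treatment with test chemical, then held in a greenhouse for twelve to sixteen days. Injury was visually rated against untreated controls on a 0–10 scale, where 0 is no effect and 10 is complete control.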

[3] = system: surinam grass; assay: Test B pre/postemergence surinam grass; type: in vivo, Brachiaria decumbens
Outline: as §1

[4] = system: rice; assay: Test B flood test rice; type: in vivo, Oryza sativa
Outline: as §2

[5] = system: pigweed; assay: Test B pre/postemergence pigweed; type: in vivo, Amaranthus retroflexus
Outline: as §1

[6] = system: wheat; assay: Test B pre/postemergence wheat; type: in vivo, Triticum aestivum
Outline: as §1

[7] = system: rape; assay: Test B pre/postemergence rape; type: in vivo, Brassica napus
Outline: as §1

[8] = system: cocklebur; assay: Test B pre/postemergence cocklebur; type: in vivo, Xanthium strumarium
Outline: as §1

[9] = system: soybean; assay: Test B pre/postemergence soybean; type: in vivo, Glycine max
Outline: as §1

[10] = system: wild oat; assay: Test B pre/postemergence wild oat; type: in vivo, Avena fatua
Outline: as §1

[11] = system: sugar beet; assay: Test B pre/postemergence sugar beet; type: in vivo, Beta vulgaris
Outline: as §1

[12] = system: giant foxtail; assay: Test B pre/postemergence giant foxtail; type: in vivo, Setaria faberii
Outline: as §1

[13] = system: velvetleaf; assay: Test B pre/postemergence velvetleaf; type: in vivo, Abutilon theophrasti
Outline: as §1

[14] = system: smallflower flatsedge; assay: Test B flood test smallflower flatsedge; type: in vivo, Cyperus difformis
Outline: as §2

[15] = system: bedstraw; assay: Test B pre/postemergence bedstraw; type: in vivo, Galium aparine
Outline: as §1

[16] = system: corn; assay: Test B pre/postemergence corn; type: in vivo, Zea mays
Outline: as §1

[17] = Preemergence, Rate 62 g/ha, scale of 0 to 10 where 0 is no effect and 10 is complete control
[18] = Rate 62 g/ha, Postemergence, scale of 0 to 10 where 0 is no effect and 10 is complete control
[19] = Rate 125 g/ha, Postemergence, scale 0 to 10
[20] = Rate 500 g/ha, Postemergence, scale 0 to 10, 0 no effect, 10 complete control
[21] = Rate 62 g/ha, headed Pre-emergence (flood test species), scale 0 to 10 (0 no effect, 10 complete control)
[22] = Rate 125 g/ha, Pre-emergence, flood test species, scale 0 to 10 where 0 is no effect and 10 is complete control
[23] = Rate 250 g/ha, Pre-emergence, flood-test species, scale 0 to 10, 0 is no effect, 10 is complete control
[24] = Rate 500 g/ha, Pre-emergence, flood test species, scale 0 to 10 (0 no effect, 10 complete control)
[25] = Preemergence, Rate 500 g/ha, scale of 0 to 10 where 0 is no effect and 10 is complete control
[26] = Rate 125 g/ha, Preemergence, scale of 0 to 10 where 0 is no effect and 10 is complete control
[27] = Preemergence, Rate 250 g/ha, scale of 0 to 10 where 0 is no effect and 10 is complete control

For `Cc1cc(C)c(-n2c(=O)on(C(=O)N(c3ccc(F)cc3)C(C)C)c2=O)c(Br)c1` [Compound 224], the “Nutsedge plant response rating” value [1, 17] was 0, the “Nutsedge plant response rating” value [1, 18] was 0 and the “Nutsedge plant response rating” value [1, 19] was 0. For the same molecule, the “Plant response rating (0 to 10; 0 is no effect, 10 is complete control), Nutsedge” value ([1]; Rate 250 g/ha, Postemergence) was 0, the “Nutsedge plant response rating” value [1, 20] was 0 and the “Ducksalad plant response rating” value [2, 21] was 0. For the same molecule, the “Ducksalad plant response rating” value [2, 22] was 0, the “Ducksalad plant response rating” value [2, 23] was 0 and the “Ducksalad plant response rating” value [2, 24] was 0. The “B. signalgrass plant response rating” value [3, 17] was 0, the “B. signalgrass plant response rating” value ([3]; Preemergence, Rate 250 g/ha, scale 0 to 10, 0 is no effect, 10 is complete control) was 4 and the “Plant response rating, B. signalgrass” value [3, 25] was 4. For the same molecule, the “B. signalgrass plant response rating” value [3, 18] was 0, the “B. signalgrass plant response rating” value ([3]; Rate 125 g/ha, Postemergence, scale 0 (no effect) to 10 (complete control)) was 0 and the “B. signalgrass plant response rating” value [3, 26] was 3. The “Plant response rating (0 to 10; 0 is no effect, 10 is complete control), B. signalgrass” value ([3]; Rate 250 g/ha, Postemergence) was 0, the “B. signalgrass plant response rating” value [3, 20] was 0 and the “Rice plant response rating” value [4, 21] was 0. The “Rice plant response rating” value [4, 22] was 0, the “Rice plant response rating” value [4, 23] was 0 and the “Rice plant response rating” value [4, 24] was 0. For the same molecule, the “Redroot pigweed plant response rating” value [5, 17] was 0, the “Redroot pigweed plant response rating” value [5, 27] was 0 and the “Plant response rating, Redroot pigweed” value [5, 25] was 4. The “Redroot pigweed plant response rating” value [5, 18] was 0, the “Redroot pigweed plant response rating” value [5, 19] was 2 and the “Redroot pigweed plant response rating” value [5, 26] was 0. For the same molecule, the “Plant response rating (0 to 10; 0 is no effect, 10 is complete control), Redroot pigweed” value ([5]; Rate 250 g/ha, Postemergence) was 4, the “Redroot pigweed plant response rating” value [5, 20] was 7 and the “Wheat plant response rating” value [6, 17] was 0. The “Wheat plant response rating” value [6, 27] was 0, the “Plant response rating, Wheat” value [6, 25] was 0 and the “Wheat plant response rating” value [6, 18] was 0. For the same molecule, the “Wheat plant response rating” value [6, 19] was 0, the “Wheat plant response rating” value [6, 26] was 0 and the “Plant response rating (0 to 10; 0 is no effect, 10 is complete control), Wheat” value ([6]; Rate 250 g/ha, Postemergence) was 0. The “Wheat plant response rating” value [6, 20] was 0, the “Rape plant response rating” value [7, 17] was 0 and the “Rape plant response rating” value [7, 27] was 0. The “Plant response rating, Rape” value [7, 25] was 0, the “Rape plant response rating” value [7, 18] was 0 and the “Rape plant response rating” value [7, 19] was 0. For the same molecule, the “Rape plant response rating” value [7, 26] was 0, the “Plant response rating (0 to 10; 0 is no effect, 10 is complete control), Rape” value ([7]; Rate 250 g/ha, Postemergence) was 0 and the “Rape plant response rating” value [7, 20] was 0. For the same molecule, the “Cocklebur plant response rating” value [8, 17] was 0, the “Cocklebur plant response rating” value [8, 27] was 0 and the “Plant response rating, Cocklebur” value [8, 25] was 0. The “Cocklebur plant response rating” value [8, 18] was 0, the “Cocklebur plant response rating” value [8, 19] was 0 and the “Cocklebur plant response rating” value [8, 26] was 0. For the same molecule, the “Plant response rating (0 to 10; 0 is no effect, 10 is complete control), Cocklebur” value ([8]; Rate 250 g/ha, Postemergence) was 0, the “Cocklebur plant response rating” value [8, 20] was 1 and the “Soybean plant response rating” value [9, 17] was 0. The “Soybean plant response rating” value [9, 27] was 0, the “Plant response rating, Soybean” value [9, 25] was 0 and the “Soybean plant response rating” value [9, 18] was 2. The “Soybean plant response rating” value [9, 19] was 3, the “Soybean plant response rating” value [9, 26] was 0 and the “Plant response rating (0 to 10; 0 is no effect, 10 is complete control), Soybean” value ([9]; Rate 250 g/ha, Postemergence) was 4. The “Soybean plant response rating” value [9, 20] was 2, the “Wild oats plant response rating” value [10, 17] was 0 and the “Wild oats plant response rating” value [10, 27] was 0. For the same molecule, the “Plant response rating, Wild oats” value [10, 25] was 2, the “Wild oats plant response rating” value [10, 18] was 0 and the “Wild oats plant response rating” value [10, 19] was 0. The “Wild oats plant response rating” value [10, 26] was 0, the “Plant response rating (0 to 10; 0 is no effect, 10 is complete control), Wild oats” value ([10]; Rate 250 g/ha, Postemergence) was 0 and the “Wild oats plant response rating” value [10, 20] was 0. For the same molecule, the “Sugarbeets plant response rating” value [11, 17] was 0, the “Sugarbeets plant response rating” value [11, 27] was 0 and the “Plant response rating, Sugarbeets” value [11, 25] was 0. For the same molecule, the “Sugarbeets plant response rating” value [11, 18] was 1, the “Sugarbeets plant response rating” value [11, 19] was 2 and the “Sugarbeets plant response rating” value [11, 26] was 0. For the same molecule, the “Plant response rating (0 to 10; 0 is no effect, 10 is complete control), Sugarbeets” value ([11]; Rate 250 g/ha, Postemergence) was 4, the “Sugarbeets plant response rating” value [11, 20] was 4 and the “Giant foxtail plant response rating” value [12, 17] was 3. For the same molecule, the “Giant foxtail plant response rating” value [12, 27] was 9, the “Plant response rating, Giant foxtail” value [12, 25] was 10 and the “Giant foxtail plant response rating” value [12, 18] was 0. For the same molecule, the “Giant foxtail plant response rating” value [12, 19] was 0, the “Giant foxtail plant response rating” value [12, 26] was 7 and the “Plant response rating (0 to 10; 0 is no effect, 10 is complete control), Giant foxtail” value ([12]; Rate 250 g/ha, Postemergence) was 4. For the same molecule, the “Giant foxtail plant response rating” value [12, 20] was 0, the “Velvetleaf plant response rating” value [13, 17] was 0 and the “Velvetleaf plant response rating” value [13, 27] was 0. The “Plant response rating, Velvetleaf” value [13, 25] was 0, the “Velvetleaf plant response rating” value [13, 18] was 0 and the “Velvetleaf plant response rating” value [13, 19] was 0. The “Velvetleaf plant response rating” value [13, 26] was 0, the “Plant response rating (0 to 10; 0 is no effect, 10 is complete control), Velvetleaf” value ([13]; Rate 250 g/ha, Postemergence) was 0 and the “Velvetleaf plant response rating” value [13, 20] was 4. For the same molecule, the “S. Flatsedge plant response rating” value [14, 21] was 0, the “S. Flatsedge plant response rating” value [14, 22] was 0 and the “S. Flatsedge plant response rating” value [14, 23] was 0. For the same molecule, the “S. Flatsedge plant response rating” value [14, 24] was 0, the “Bedstraw plant response rating” value [15, 17] was 0 and the “Bedstraw plant response rating” value [15, 27] was 0. For the same molecule, the “Plant response rating, Bedstraw” value [15, 25] was 0, the “Bedstraw plant response rating” value [15, 18] was 3 and the “Bedstraw plant response rating” value [15, 19] was 3. For the same molecule, the “Bedstraw plant response rating” value [15, 26] was 0, the “Plant response rating (0 to 10; 0 is no effect, 10 is complete control), Bedstraw” value ([15]; Rate 250 g/ha, Postemergence) was 4 and the “Bedstraw plant response rating” value [15, 20] was 4. For the same molecule, the “Corn plant response rating” value [16, 17] was 0, the “Corn plant response rating” value [16, 27] was 0 and the “Plant response rating, Corn” value [16, 25] was 0. The “Corn plant response rating” value [16, 18] was 0, the “Corn plant response rating” value [16, 19] was 0 and the “Corn plant response rating” value [16, 26] was 0. For the same molecule, the “Plant response rating (0 to 10; 0 is no effect, 10 is complete control), Corn” value ([16]; Rate 250 g/ha, Postemergence) was 0 and the “Corn plant response rating” value [16, 20] was 0.
